# Test results as given in ChEMBL document CHEMBL3272142, “Analgesics and narcotic antagonists in the benzomorphan and 8-oxamorphinan series. 5” (1978).
# Tested on: Mus musculus
# Experiment: Analgesic activity in sc dosed mouse assessed as phenylquinone-induced writhing measured for 10 mins
# Type: functional
# Settings: not given
row,Structure (SMILES),ED50
1,Oc1ccc2c(c1)[C@@]13CCCO[C@H]1[C@@H](C2)N(CC1CC1)CC3 (stereo in doubt; 6c),0.03 mg/kg
2,C[C@@]12OCCC[C@@]13CCN(CC1CC1)[C@@H]2Cc1ccc(O)cc13 (stereo in doubt; 6d),0.19 mg/kg
3,Oc1ccc2c(c1)[C@@]13CCCO[C@H]1[C@@H](C2)N(CC1CC1)CC3 (stereo in doubt; (+)-6c),>40 mg/kg
4,C[C@@]12OCCC[C@@]13CCN(CC1CC1)[C@@H]2Cc1ccc(O)cc13 (stereo in doubt; (+)-6d),>40 mg/kg
5,Oc1ccc2c(c1)[C@@]13CCCO[C@H]1[C@@H](C2)N(CC1CC1)CC3 (stereo in doubt; (-)-6c),0.013 mg/kg
6,C[C@@]12OCCC[C@@]13CCN(CC1CC1)[C@@H]2Cc1ccc(O)cc13 (stereo in doubt; (-)-6d),0.105 mg/kg

# Same assay, conditions: Mus musculus, sc, 10 min; read-out: ED50
row,Structure (SMILES),ED50
1,C=CCC12CCN(C)C(Cc3ccc(O)cc31)[C@@H]2O (stereo partly specified),> 40 mg/kg
2,CC1CC23CCN(C)C(Cc4ccc(O)cc42)C3(C)O1 (stereo unspecified),0.4 mg/kg
3,CC1CC23CCN(CC4CC4)C(Cc4ccc(O)cc42)C3(C)O1 (stereo unspecified),> 40 mg/kg
4,CN1CC[C@]23CCCO[C@@H]2[C@H]1Cc1ccc(O)cc13,30 mg/kg
5,Oc1ccc2c(c1)[C@@]13CCCO[C@@H]1[C@@H](C2)N(CC1CC1)CC3,8.4 mg/kg
6,C=CCC12CCN(CC3CC3)C(Cc3ccc(O)cc31)[C@@H]2O (stereo partly specified),0.23 mg/kg
7,C=CCC12CCN(CC3CCC3)C(Cc3ccc(O)cc31)[C@@H]2O (stereo partly specified),11 mg/kg
8,C=CCC12CCN(CC3CC3)C(Cc3ccc(O)cc31)[C@]2(C)O (stereo partly specified),> 40 mg/kg
9,C=CCC12CCN(CC3CCC3)C(Cc3ccc(O)cc31)[C@]2(C)O (stereo partly specified),1.3 mg/kg
10,CC1CC23CCN(C)C(Cc4ccc(O)cc42)C3O1 (stereo unspecified),1.8 mg/kg
11,CN1CC[C@]23CCCO[C@]2(C)[C@H]1Cc1ccc(O)cc13,> 40 mg/kg
12,C[C@]12OCCC[C@@]13CCN(CC1CC1)[C@@H]2Cc1ccc(O)cc13,35 mg/kg
13,C[C@]12OCCC[C@@]13CCN(CC1CCC1)[C@@H]2Cc1ccc(O)cc13,16 mg/kg
14,CN1CC[C@]23CCCO[C@H]2[C@H]1Cc1ccc(O)cc13,0.6 mg/kg
15,CN1CC[C@]23CCCO[C@@]2(C)[C@H]1Cc1ccc(O)cc13,0.03 mg/kg
16,Oc1ccc2c(c1)[C@@]13CCCO[C@H]1[C@@H](C2)N(CC1CCC1)CC3,0.15 mg/kg
17,C[C@@]12OCCC[C@@]13CCN(CC1CCC1)[C@@H]2Cc1ccc(O)cc13,0.068 mg/kg
18,C=CCN1CC[C@]23CCCO[C@@]2(C)[C@H]1Cc1ccc(O)cc13,28 mg/kg
19,CC(C)=CCN1CC[C@]23CCCO[C@@]2(C)[C@H]1Cc1ccc(O)cc13,0.18 mg/kg
20,Oc1ccc2c(c1)[C@@]13CCCC[C@@]1(O)[C@@H](C2)N(CC1CCC1)CC3 [BUTORPHANOL],0.051 mg/kg
21,Oc1ccc2c(c1)[C@@]13CCCC[C@H]1[C@@H](C2)N(CC1CC1)CC3 [CYCLORPHAN],0.013 mg/kg
22,Oc1ccc2c(c1)[C@@]13CCCC[C@@]1(O)[C@@H](C2)N(CC1CC1)CC3 [OXILORPHAN],12.8 mg/kg

# Tested on: Mus musculus
# Experiment: Narcotic antagonist activity in sc dosed mouse assessed as reversal of oxymorphone-induced straub tail response administered 10 mins before oxymorphone challenge
# Type: functional
# Settings: not given
row,Structure (SMILES),ED50
1,Oc1ccc2c(c1)[C@@]13CCCO[C@H]1[C@@H](C2)N(CC1CC1)CC3 (stereo in doubt; 6c),0.3 mg/kg
2,C[C@@]12OCCC[C@@]13CCN(CC1CC1)[C@@H]2Cc1ccc(O)cc13 (stereo in doubt; 6d),0.61 mg/kg
3,Oc1ccc2c(c1)[C@@]13CCCO[C@H]1[C@@H](C2)N(CC1CC1)CC3 (stereo in doubt; (+)-6c),>40 mg/kg
4,C[C@@]12OCCC[C@@]13CCN(CC1CC1)[C@@H]2Cc1ccc(O)cc13 (stereo in doubt; (+)-6d),>40 mg/kg
5,Oc1ccc2c(c1)[C@@]13CCCO[C@H]1[C@@H](C2)N(CC1CC1)CC3 (stereo in doubt; (-)-6c),0.26 mg/kg
6,C[C@@]12OCCC[C@@]13CCN(CC1CC1)[C@@H]2Cc1ccc(O)cc13 (stereo in doubt; (-)-6d),0.2 mg/kg

# Same assay, conditions: Mus musculus, sc; read-out: ED50
row,Structure (SMILES),ED50
1,C=CCC12CCN(C)C(Cc3ccc(O)cc31)[C@@H]2O (stereo partly specified),> 40 mg/kg
2,CC1CC23CCN(C)C(Cc4ccc(O)cc42)C3(C)O1 (stereo unspecified),> 40 mg/kg
3,CC1CC23CCN(CC4CC4)C(Cc4ccc(O)cc42)C3(C)O1 (stereo unspecified),5 mg/kg
4,CN1CC[C@]23CCCO[C@@H]2[C@H]1Cc1ccc(O)cc13,> 40 mg/kg
5,Oc1ccc2c(c1)[C@@]13CCCO[C@@H]1[C@@H](C2)N(CC1CC1)CC3,20 mg/kg
6,C=CCC12CCN(CC3CC3)C(Cc3ccc(O)cc31)[C@@H]2O (stereo partly specified),1.9 mg/kg
7,C=CCC12CCN(CC3CCC3)C(Cc3ccc(O)cc31)[C@@H]2O (stereo partly specified),4.5 mg/kg
8,C=CCC12CCN(CC3CC3)C(Cc3ccc(O)cc31)[C@]2(C)O (stereo partly specified),0.8 mg/kg
9,C=CCC12CCN(CC3CCC3)C(Cc3ccc(O)cc31)[C@]2(C)O (stereo partly specified),10 mg/kg
10,CC1CC23CCN(C)C(Cc4ccc(O)cc42)C3O1 (stereo unspecified),> 40 mg/kg
11,CN1CC[C@]23CCCO[C@]2(C)[C@H]1Cc1ccc(O)cc13,> 40 mg/kg
12,C[C@]12OCCC[C@@]13CCN(CC1CC1)[C@@H]2Cc1ccc(O)cc13,6 mg/kg
13,C[C@]12OCCC[C@@]13CCN(CC1CCC1)[C@@H]2Cc1ccc(O)cc13,5 mg/kg
14,CN1CC[C@]23CCCO[C@H]2[C@H]1Cc1ccc(O)cc13,> 40 mg/kg
15,CN1CC[C@]23CCCO[C@@]2(C)[C@H]1Cc1ccc(O)cc13,> 40 mg/kg
16,Oc1ccc2c(c1)[C@@]13CCCO[C@H]1[C@@H](C2)N(CC1CCC1)CC3,10 mg/kg
17,C[C@@]12OCCC[C@@]13CCN(CC1CCC1)[C@@H]2Cc1ccc(O)cc13,23 mg/kg
18,C=CCN1CC[C@]23CCCO[C@@]2(C)[C@H]1Cc1ccc(O)cc13,1 mg/kg
19,CC(C)=CCN1CC[C@]23CCCO[C@@]2(C)[C@H]1Cc1ccc(O)cc13,> 40 mg/kg
20,Oc1ccc2c(c1)[C@@]13CCCC[C@@]1(O)[C@@H](C2)N(CC1CCC1)CC3 [BUTORPHANOL],0.98 mg/kg
21,Oc1ccc2c(c1)[C@@]13CCCC[C@H]1[C@@H](C2)N(CC1CC1)CC3 [CYCLORPHAN],0.32 mg/kg
22,Oc1ccc2c(c1)[C@@]13CCCC[C@@]1(O)[C@@H](C2)N(CC1CC1)CC3 [OXILORPHAN],0.19 mg/kg

# Tested on: Rattus norvegicus
# Experiment: Analgesic activity in sc dosed rat assessed as phenylquinone-induced writhing measured for 10 mins
# Type: functional
# Settings: not given
row,Structure (SMILES),ED50
1,Oc1ccc2c(c1)[C@@]13CCCO[C@H]1[C@@H](C2)N(CC1CC1)CC3 (stereo in doubt; (-)-6c),0.09 mg/kg
2,C[C@@]12OCCC[C@@]13CCN(CC1CC1)[C@@H]2Cc1ccc(O)cc13 (stereo in doubt; (-)-6d),0.2 mg/kg
3,Oc1ccc2c(c1)[C@@]13CCCC[C@@]1(O)[C@@H](C2)N(CC1CCC1)CC3 [BUTORPHANOL],0.04 mg/kg
4,Oc1ccc2c(c1)[C@@]13CCCC[C@H]1[C@@H](C2)N(CC1CC1)CC3 [CYCLORPHAN],0.028 mg/kg
5,Oc1ccc2c(c1)[C@@]13CCCC[C@@]1(O)[C@@H](C2)N(CC1CC1)CC3 [OXILORPHAN],8 mg/kg

# Tested on: Mus musculus
# Experiment: Narcotic antagonist activity in sc dosed mouse assessed as reversal of oxymorphone-induced narcosis
# Type: functional
# Settings: not given
row,Structure (SMILES),ED50
1,Oc1ccc2c(c1)[C@@]13CCCO[C@H]1[C@@H](C2)N(CC1CC1)CC3 (stereo in doubt; (-)-6c),0.04 mg/kg
2,C[C@@]12OCCC[C@@]13CCN(CC1CC1)[C@@H]2Cc1ccc(O)cc13 (stereo in doubt; (-)-6d),0.014 mg/kg
3,Oc1ccc2c(c1)[C@@]13CCCC[C@@]1(O)[C@@H](C2)N(CC1CCC1)CC3 [BUTORPHANOL],0.27 mg/kg
4,Oc1ccc2c(c1)[C@@]13CCCC[C@H]1[C@@H](C2)N(CC1CC1)CC3 [CYCLORPHAN],0.1 mg/kg
5,Oc1ccc2c(c1)[C@@]13CCCC[C@@]1(O)[C@@H](C2)N(CC1CC1)CC3 [OXILORPHAN],0.03 mg/kg

# Species on record: Rattus norvegicus
# Experiment: Antagonist activity in rat assessed as morphine-induced analgesia by […] tail flick test
# Type: functional
# Settings: not given
row,Structure (SMILES),ED50
1,Oc1ccc2c(c1)[C@@]13CCCO[C@H]1[C@@H](C2)N(CC1CC1)CC3 (stereo in doubt; (-)-6c),0.097 mg/kg
2,C[C@@]12OCCC[C@@]13CCN(CC1CC1)[C@@H]2Cc1ccc(O)cc13 (stereo in doubt; (-)-6d),0.021 mg/kg
3,Oc1ccc2c(c1)[C@@]13CCCC[C@@]1(O)[C@@H](C2)N(CC1CCC1)CC3 [BUTORPHANOL],0.43 mg/kg
4,Oc1ccc2c(c1)[C@@]13CCCC[C@H]1[C@@H](C2)N(CC1CC1)CC3 [CYCLORPHAN],0.032 mg/kg
5,Oc1ccc2c(c1)[C@@]13CCCC[C@@]1(O)[C@@H](C2)N(CC1CC1)CC3 [OXILORPHAN],0.012 mg/kg
